For 16 molecules, IC50 results are on record in patent US20110177105A1, “Novel Selective Inhibitors of Ubiquitin Specific Protease 7, the Pharmaceutical Compositions Thereof and Their Therapeutic Applications” (priority 2010, published 2011).

In this test the target is T1, USP5 (Homo sapiens, UniProt P45974).
T1 sequence (P45974 1-858): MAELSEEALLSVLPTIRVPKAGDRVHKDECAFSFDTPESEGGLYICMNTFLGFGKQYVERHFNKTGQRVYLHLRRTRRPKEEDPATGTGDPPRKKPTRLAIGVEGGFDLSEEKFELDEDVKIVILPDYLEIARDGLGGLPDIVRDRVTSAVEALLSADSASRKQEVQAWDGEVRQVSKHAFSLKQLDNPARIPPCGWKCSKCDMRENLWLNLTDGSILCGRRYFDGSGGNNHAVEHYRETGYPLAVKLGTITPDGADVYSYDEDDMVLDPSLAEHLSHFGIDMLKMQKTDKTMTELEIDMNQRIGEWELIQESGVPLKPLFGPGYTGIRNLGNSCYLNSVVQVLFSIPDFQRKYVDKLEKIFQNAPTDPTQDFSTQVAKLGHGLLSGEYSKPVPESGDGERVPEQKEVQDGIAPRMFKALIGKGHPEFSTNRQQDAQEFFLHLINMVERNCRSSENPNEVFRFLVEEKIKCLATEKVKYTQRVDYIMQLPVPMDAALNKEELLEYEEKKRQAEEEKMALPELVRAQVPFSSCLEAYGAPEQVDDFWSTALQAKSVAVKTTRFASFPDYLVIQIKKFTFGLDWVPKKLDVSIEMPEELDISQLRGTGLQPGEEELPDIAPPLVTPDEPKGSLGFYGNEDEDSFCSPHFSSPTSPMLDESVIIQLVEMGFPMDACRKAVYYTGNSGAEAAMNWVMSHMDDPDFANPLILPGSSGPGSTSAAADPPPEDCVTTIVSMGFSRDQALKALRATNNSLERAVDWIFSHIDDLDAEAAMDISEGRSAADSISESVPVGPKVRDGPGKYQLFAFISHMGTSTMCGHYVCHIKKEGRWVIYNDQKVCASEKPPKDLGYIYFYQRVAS
The test is described as follows: USP5 activity assay (Ub-AMC). It is filed as biochemical. As to conditions: 300 nM Ub-AMC, 300 pM enzyme. The procedure: USP5 was diluted in USP buffer (50 mM Tris HCl; 0.5 mM EDTA; 5 mM DTT; 0.01% Triton X-100; Bovine Serum Albumin 0.05 mg·ml^−1 pH 7.6). Compounds stocks (100 mM) were stored at −20° C. in DMSO. Compounds were tested at different concentrations: from 200 μM to 91 nM.
Reactions were performed as duplicates in Black 384 well plates (small volume microplates; Greiner; 10 μl final reaction volume). The substrate concentration for USP5 was 300 nM Ub-AMC (Boston Biochem). The concentrations of the enzyme (USP5) in specificity assays was 300 pM. The concentrations were determined in order to perform specificity assays under initial velocities at fixed substrate concentration. Compounds were pre-incubated with enzymes for 30 minutes at 25° C. Reactions were initiated by addition of substrate to the plates containing the enzymes (+/−compounds) diluted in assay buffer. Reactions were incubated for 60 minutes at 37° C. Reactions were stopped by adding acetic acid (100 mM final). Readings were performed on a Pherastar Fluorescent Reader (BMG). λ Emission 380 nm; λ Excitation=460 nm. Data (mean values+/−standard deviation) were analyzed as % of control (no compound) and plotted as percentage versus the Log of the compound concentration using GraphPad (Prism). Data were fitted to a sigmoidal model (variable slope).

Structures are written as SMILES. pIC50: −log10 of the molar value. Some results are limits rather than exact numbers.

In general, pIC50 refers to the negative decadic logarithm of the IC50, by convention in mol/L. A low value points to a high IC50. `CCCN(CCC)CCNC(=O)c1ccc2c(Cl)c3c(nc2c1)CCCC3` [Example 3, 9-Chloro-5,6,7,8-tetrahydro-acridine-3-carboxylic acid (2-dipropylamino-ethyl)-amide] gave a pIC50 of less than 3.70.
Consider `CCN(CC)CCNC(=O)c1ccc2c(Cl)c3c(nc2c1)CCCC3` [Example 7, 9-Chloro-5,6,7,8-tetrahydro-acridine-3-carboxylic acid (2-diethylamino-ethyl)-amide], for which the pIC50 is less than 3.70.
As for `O=C(c1ccc2c(Cl)c3c(nc2c1)CCCC3)N1CCC(N2CCCCC2)CC1` [Example 16, [1,4′]Bipiperidinyl-1′-yl-(9-chloro-5,6,7,8-tetrahydro-acridin-3-yl)-methanone], the pIC50 was less than 3.70.
Turning to `CCN1CCCC1CNC(=O)c1ccc2c(Cl)c3c(nc2c1)CCCC3` (stereo not shown) [Example 2, 9-Chloro-5,6,7,8-tetrahydro-acridine-3-carboxylic acid (1-ethyl-pyrrolidin-2-ylmethyl)-amide], the pIC50 is less than 3.70.
Under `CC1CCCC(C)N1CCCNC(=O)c1ccc2c(Cl)c3c(nc2c1)CCCC3` (stereo not shown) [Example 9, 9-Chloro-5,6,7,8-tetrahydro-acridine-3-carboxylic acid [3-(2,6-dimethyl-piperidin-1-yl)-propyl]-amide] stands less than 3.70.
On to `O=C(NCCCN1CCCC1)c1ccc2c(Cl)c3c(nc2c1)CCCC3` [Example 8, 9-Chloro-5,6,7,8-tetrahydro-acridine-3-carboxylic acid (3-pyrrolidin-1-yl-propyl)-amide], for which the pIC50 was less than 3.70.
To `CCN(CCCNC(=O)c1ccc2c(Cl)c3c(nc2c1)CCCC3)Cc1ccccc1` [Example 5, 9-Chloro-5,6,7,8-tetrahydro-acridine-3-carboxylic acid [3-(benzyl-ethyl-amino)-propyl]-amide] belongs less than 3.70; to `CCCN(CCC)CCCNC(=O)c1ccc2c(Cl)c3c(nc2c1)CCCC3` [Example 6, 9-Chloro-5,6,7,8-tetrahydro-acridine-3-carboxylic acid (3-dipropylamino-propyl)-amide], less than 3.70.
To `CN(C)CCNC(=O)c1ccc2c(Cl)c3c(nc2c1)CCCC3` [Example 11, 9-Chloro-5,6,7,8-tetrahydro-acridine-3-carboxylic acid (2-dimethylamino-ethyl)-amide] belongs less than 3.70; to `CCN(CC)CCCNC(=O)c1ccc2c(Cl)c3c(nc2c1)CCCC3` [Example 10, 9-Chloro-5,6,7,8-tetrahydro-acridine-3-carboxylic acid (3-diethylamino-propyl)-amide], less than 3.70.
To `CN(CCCNC(=O)c1ccc2c(Cl)c3c(nc2c1)CCCC3)Cc1ccccc1` [Example 14, 9-Chloro-5,6,7,8-tetrahydro-acridine-3-carboxylic acid [3-(benzyl-methyl-amino)-propyl]-amide] belongs less than 3.70; to `O=C(c1ccc2c(Cl)c3c(nc2c1)CCCC3)N1CCCCCC1` [Example 12, Azepan-1-yl-(9-chloro-5,6,7,8-tetrahydro-acridin-3-yl)-methanone], less than 3.70.
Molecule `CCCCN(CC)CCNC(=O)c1ccc2c(Cl)c3c(nc2c1)CCCC3` [Example 4, 9-Chloro-5,6,7,8-tetrahydro-acridine-3-carboxylic acid [2-(butyl-ethyl-amino)-ethyl]-amide] gave a pIC50 of less than 3.70.
To `Cc1cccc(CN2CCC(CNC(=O)c3ccc4c(Cl)c5c(nc4c3)CCCC5)CC2)c1` [Example 1, 9-Chloro-5,6,7,8-tetrahydro-acridine-3-carboxylic acid [1-(3-methyl-benzyl)-piperidin-4-ylmethyl]-amide] belongs less than 3.70; to `CCCN1CCN(CCCNC(=O)c2ccc3c(Cl)c4c(nc3c2)CCCC4)CC1` [Example 13, 9-Chloro-5,6,7,8-tetrahydro-acridine-3-carboxylic acid [3-(4-propyl-piperazin-1-yl)-propyl]-amide], less than 3.70; to `CN1CCN(CCCNC(=O)c2ccc3c(Cl)c4c(nc3c2)CCCC4)CC1` [Example 15, 9-Chloro-5,6,7,8-tetrahydro-acridine-3-carboxylic acid [3-(4-methyl-piperazin-1-yl)-propyl]-amide], less than 3.70.
